Data: patent publication US20220380761A1, “ORAL DELIVERY OF OLIGONUCLEOTIDES” (CiVi Biopharma, Inc., priority 2021, published 2022)
l = locked nucleic acid (LNA); d = 2'-deoxy (DNA)

Tests used:
[1] = Oral capsule PK study of an oligo against Factor VII, with or without GalNAc, using 5-CNAC as carrier; format: in vivo, Cynomolgus monkey
Description: (§1) Study outline: Dry blended capsules (20 mg Factor FVII with or without GalNac/200 mg 5-CNAC) were manufactured from uniform dry blended formulations, that were filled into enterically coated Size 0, hard shell gelatin capsules. A total of 10 Cynomolgus monkeys (5 males and 5 females) were each administered a single capsule of either oligo by oral gavage, and blood samples for PK analysis were drawn pre-dose and 0.5, 1.5, 3 and 5 hours post-dosing.

[2] = Oral capsule toxicokinetic study of CIVI 008 using 5-CNAC as carrier; format: in vivo, Cynomolgus monkey; conditions: for AUC with increasing dose of CIVI 008 / Cmax with increasing dose of CIVI 008: constant dose of 5-CNAC
Excerpt: The objectives of this study were to determine the ability of 5-CNAC [Disodium N-(5-Chorosalicyloyl)-8-aminocaprylate] to facilitate oral uptake of CIVI 008 and to determine the manufacture method and dosing paradigm of CIVI 008/5-CNAC capsules that provide the most efficient oral uptake of CIVI 008 when administered to Cynomolgus monkeys of Mauritian origin.
Study outline: A total of 10 Cynomolgus monkeys (5 males and 5 females) were each dosed with 2 group A capsules on Monday and Wednesday in week 1, followed by 4 days of dosing holiday. This Monday and Wednesday dosing scheme was continued in weeks 2, 3, 5, 6, 7, 8, 13, 14, 15 and 17 using 2 group B-capsules per dose occasion in week 2, and 1 capsule of groups C to K per dose occasion in their respective weeks. During the dosing period, blood samples for PK analysis were drawn pre-dose and 0.5, 1.5, 3 and 5 hours post-dosing on Mondays and Wednesdays. Samples for clinical chemistry and hematology (see example 1) were taken pre-study and end of study.

plasma LDL = experiment: Plasma LDL after once-daily oral CIVI 008/5-CNAC capsule for 49 days; format: in vivo, Cynomolgus monkey; conditions: 5-CNAC vs SNAC
Description: The objectives of this study were to determine the ability of 5-CNAC [disodium N-(5-chorosalicyloyl)-8-aminocaprylate] to reduce plasma PCSK9 when dosed once daily for 7 weeks. The half-life of CIVI 008 in the liver of non-human primates is between 2 to 3 weeks, so after 7-weeks of dosing liver concentrations are expected to reach >80% of its steady state level.
Study outline: Dry blended capsules (20 mg CIVI 008/200 mg 5-CNAC) were manufactured from uniform dry blended formulations, that were filled into enterically coated Size 0, hard shell gelatin capsules. A total of 10 Cynomolgus monkeys (5 males and 5 females) were each administered a single capsule by oral gavage once daily for 49 days. […] During the dosing period, blood samples for PK analysis were drawn pre-dose and 0.5, 1.5, 3 and 5 hours post-dosing at study start and at day 49. Blood samples for PCSK9 and lipid analysis were drawn on week −2 and −1 pre-study, pre-dose on Day 1 and weekly thereafter for the duration of the study. Samples for clinical chemistry, coagulation and hematology were taken on week −2 and −1 pre-study, and on Day 22 and 49.

[3] = Oral capsule PK study of CIVI 008 without GalNAc using 5-CNAC as carrier; format: in vivo, Cynomolgus monkey; conditions: single oral capsule 20 mg/200 mg 5-CNAC
Excerpt: As shown in previous Examples 1 and 3, orally dosed CIVI 008 with GalNAc is rapidly internalized in the liver by the GalNAc receptor, with very little CIVI 008 escaping into general circulation at doses below that required for saturation of the GalNAc receptor. In many instances the objective is to target genes that are expressed in organs other than the liver. […] The objective of this study was to determine the systemic exposure of orally administered CIVI 008 without the GalNAc conjugate, and to compare the exposure to that of a similar oral dose of CIVI 008 with GalNAc.
as §1, with “CIVI 008” for “Factor FVII with or”, “GalNAc/200” for “GalNac/200”, “capsule” for “capsule of either oligo”

[4] = cynomolgus monkey, in vivo, po
Description: (§3) The objectives of this study were to evaluate the toxicity and reversibility of CIVI 008 and to determine the pharmacology, plasma exposure and target organ accumulation of CIVI 008 when administered daily by oral capsule to the Cynomolgus monkey of Mauritian origin for 42 days compared to administration by the subcutaneous route administered once every two weeks (investigated previously).
(§4) Oral Capsule: Capsules containing CIVI 008 (10 mg)/SNAC (100 mg) were manufactured as uniform dry blend formulations, that were filled into Size 4 hard shell gelatin capsules that were enterically coated post fill.

[5] = Half-life of CIVI 008 in the liver; format: in vivo, non-human primates; conditions: expected after 7-weeks of once daily dosing
[6] = cynomolgus monkey, in vivo
Description: as §3, §4

[7] = Repeat-dose toxicity of CIVI 008 formulated with SNAC (GLP); format: in vivo, Cynomolgus monkey
PCSK9 = PCSK9 change from baseline after daily oral CIVI 008/SNAC capsules for 42 days; format: in vivo, Cynomolgus monkey; conditions: control animals, 20 mg CIVI 008 capsules without SNAC, daily x 42
Excerpt: (§2) Clinical chemistry, PCSK9 and lipids: urea nitrogen, creatinine, total protein, albumin, globulin, albumin:globulin ratio, total bilirubin, aspartate aminotransferase, alanine aminotransferase, alkaline phosphatase, gamma glutamyltransferase, creatine kinase, calcium, inorganic phosphorus, sodium, potassium, chloride, high density lipoproteins, low density lipoprotein, very low density lipoprotein, total cholesterol, triglycerides.

plasma LDL-cholesterol = experiment: Plasma LDL cholesterol change from baseline after daily oral CIVI 008/SNAC capsules; format: in vivo, Cynomolgus monkey
Excerpt: as §2

[8] = single oral capsule 20 mg/200 mg 5-CNAC
[9] = CIVI 008 with 5-CNAC capsule, stated as specific aspect
[10] = dose range 5 mg to 30 mg, 200 mg 5-CNAC

Compound: unconjugated Factor FVII oligo: 13 nt LNA gapmer antisense oligo against Factor VII, SEQ ID NO: 158, without GalNAc moiety (antisense GCACCACGGTCCA; sugars from the 5' end l2 d8 l3, all phosphorothioate, methylation of C not given here)
- AUC relative to GalNac conjugated Factor FVII oligo [1, 8]: ~3.5 fold
- Cmax relative to GalNac conjugated Factor FVII oligo [1, 8]: ~3.5 fold

Compound: O=C(O)CCCCCCCNC(=O)c1cc(Cl)ccc1O [5-CNAC, N-(5-chlorosalicyloyl)-8-aminocaprylic acid]
- efficiency of carrier in facilitating oral uptake of CIVI 008 ([2]; 5-CNAC vs SNAC): more efficient of the two carriers
- efficiency in facilitating oral uptake of CIVI 008 (plasma LDL): substantially more efficient than SNAC

Compound: CIVI 008 without GalNAc: Unconjugated form of CIVI 008, 16 nt LNA gapmer, SEQ ID NO: 134, without GalNAc moiety (AATGCTACAAAACCCA; LNA gapmer stated, pattern not given here)
- AUC relative to similar dose of CIVI 008 with GalNac [3]: ~8 fold
- Cmax relative to similar dose of CIVI 008 with GalNac [3]: ~8 fold
- concentrations in the plasma [3]: measurable concentrations
- plasma profile compared to CIVI 008 with GalNAc [3]: very similar

Compound: GalNac conjugated Factor FVII oligo: 13 nt LNA gapmer antisense oligo against Factor VII, SEQ ID NO: 158, with GalNAc moiety (antisense GCACCACGGTCCA; sugars from the 5' end l2 d8 l3, all phosphorothioate, methylation of C not given here; GalNAc conjugate attached, further chemistry not fully specified)
- species found in plasma samples ([1]; 0.5 hr samples): parent compound
- species found in plasma samples ([1]; 1.5 hr samples): mixture of parent compound and loss of carbohydrate moiety
- species found in plasma samples ([1]; 3 hr samples): progressive loss of carbohydrate moiety
- species found in plasma samples ([1]; 5 hr samples): progressive loss of carbohydrate moiety

Compound: cepadacursen (AATGCTACAAAACCCA; LNA gapmer with GalNAc conjugate, pattern not given here) [CIVI 008]
- form of CIVI 008 detected in plasma (HPLC peak) [4]: mixture of parent compound and metabolites
- form of CIVI 008 detected in plasma (HPLC retention time) [4]: absorbed intact from the gut
- mean Tmax [4]: ≤ 30 min
- liver concentrations as share of steady state level [5]: > 80%
- AUC0-5 with 5-CNAC carrier compared to similar dose with SNAC carrier ([2]; 5-CNAC vs SNAC (Example 1)): increase
- Cmax with 5-CNAC carrier compared to similar dose with SNAC carrier ([2]; 5-CNAC vs SNAC (Example 1)): increase
- increase of the mean AUC0-50 with respect to corresponding composition comprising SNAC instead of 5-CNAC [2, 9]: about 80%
- increase of the mean Cmax with respect to corresponding composition comprising SNAC instead of 5-CNAC [2, 9]: about 110%
- AUC with increasing dose of CIVI 008 ([2]; dose above 25 mg): more than dose proportional increases
- Cmax with increasing dose of CIVI 008 ([2]; dose above 25 mg): more than dose proportional increases
- AUC with increasing dose of CIVI 008 ([2]; doses up to 25 mg): dose proportionally up to 25 mg
- Cmax with increasing dose of CIVI 008 ([2]; doses up to 25 mg): dose proportionally up to 25 mg
- AUC profiles, freeze-dried vs dry blended capsules [2, 10]: very similar
- Cmax profiles, freeze-dried vs dry blended capsules [2, 10]: very similar
- liver concentrations, difference between the SQ and PO arms [6]: approximately one
- histopathological changes in intestinal tract (duodenum, jejunum, ileum and colon) ([7]; QD oral dosing for 42 days): no local histopathological changes
- macroscopic or microscopic findings suggesting local or systemic effects ([7]; end of dosing and end of recovery): no macroscopic or microscopic findings
- organ weight changes ([7]; following oral capsule administration): no organ weight changes
- mean PCSK9 reductions (PCSK9): comparatively small
- LDL-c reductions (plasma LDL-cholesterol; control animals, 20 mg CIVI 008 capsules without SNAC, throughout the study): fluctuated around baseline values
- LDL levels at the end of recovery (plasma LDL-cholesterol; end of recovery): had yet to fully return to baseline
- LDL levels at the end of dosing, persistence (plasma LDL-cholesterol; recovery period after 42 days oral dosing with SNAC): maintained for two weeks post-dosing
